Data as given in ChEMBL document CHEMBL1143705, “Cytotoxic dibromotyrosine-derived metabolites from the sponge Aplysina gerardogreeni” (2007).

Key:
Type in all cases: functional
Conditions in all cases: for CC50: read-out: LC50 (the source's name)
[1] = system: HT-29; assay: Cytotoxicity against human HT29 cells by SRB assay
[2] = system: MDA-MB-231; assay: Cytotoxicity against human MDA-MB-231 cells by SRB assay
[3] = system: A549; assay: Cytotoxicity against human A549 cells by SRB assay

Structure (SMILES): COC1=C(Br)[C@H](O)[C@@]2(C=C1Br)CC(C(=O)NCCCCCNC(=O)C1=NO[C@]3(C=C(Br)C(OC)(OC)[C@@H](Br)[C@@H]3O)C1)=NO2
- GI50 [1]: 4.8 µM
- TGI [1]: > 10 µg/mL
- CC50 [1]: > 10 µg/mL
- GI50 [2]: 4.2 µM
- TGI [2]: 6 µM
- CC50 [2]: 9.6 µM
- GI50 [3]: 7.1 µM
- TGI [3]: > 10 µg/mL
- CC50 [3]: > 10 µg/mL

Structure (SMILES): COc1cccc2c1C(=O)c1c(O)c3c(c(O)c1C2=O)C[C@@](O)(C(=O)CO)C[C@@H]3O[C@H]1C[C@H](N)[C@H](O)[C@H](C)O1 [DOXORUBICIN]
- GI50 [1]: 0.1 µM
- TGI [1]: 0.3 µM
- CC50 [1]: 0.4 µM
- GI50 [2]: 0.1 µM
- TGI [2]: 0.3 µM
- CC50 [2]: 1.4 µM
- GI50 [3]: 0.1 µM
- TGI [3]: 0.2 µM
- CC50 [3]: 1 µM

Structure (SMILES): O=C(NCCCCCNC(=O)C1=NO[C@]2(C=C(Br)C(=O)[C@H](Br)[C@@H]2O)C1)C1=NO[C@]2(C=C(Br)C(=O)[C@H](Br)[C@@H]2O)C1
- GI50 [1]: 1.6 µM
- TGI [1]: 2.5 µM
- CC50 [1]: 3.7 µM
- GI50 [2]: 1.7 µM
- TGI [2]: 2.4 µM
- CC50 [2]: 3.5 µM
- GI50 [3]: 2.4 µM
- TGI [3]: 3.5 µM
- CC50 [3]: 5.5 µM

Structure (SMILES): O=C(NCCCCCNC(=O)C1=NO[C@]2(C=C(Br)C(=O)[C@@H](Br)[C@@H]2O)C1)C1=NO[C@]2(C=C(Br)C(=O)[C@@H](Br)[C@@H]2O)C1 [APLYSINONE B]
- GI50 [1]: 1.5 µM
- TGI [1]: 2.1 µM
- CC50 [1]: 3 µM
- GI50 [2]: 1.6 µM
- TGI [2]: 2.1 µM
- CC50 [2]: 3 µM
- GI50 [3]: 2 µM
- TGI [3]: 2.9 µM
- CC50 [3]: 4.1 µM

Structure (SMILES): COC1=C(Br)[C@H](O)[C@@]2(C=C1Br)CC(C(=O)NCCCCCNC(=O)C1=NO[C@]3(C=C(Br)C(=O)[C@@H](Br)[C@@H]3O)C1)=NO2 [APLYSINONE A]
- GI50 [1]: 2.8 µM
- TGI [1]: 4.8 µM
- CC50 [1]: 9.1 µM
- GI50 [2]: 3.3 µM
- TGI [2]: 5.4 µM
- CC50 [2]: 8.2 µM
- GI50 [3]: 4.5 µM
- TGI [3]: 7.1 µM
- CC50 [3]: > 10 µg/mL

Structure (SMILES): COC1=C(Br)[C@H](O)[C@@]2(C=C1Br)CC(C(=O)NCCCCNC(=O)C1=NO[C@]3(C=C(Br)C(=O)[C@H](Br)[C@@H]3O)C1)=NO2
- GI50 [1]: 3.4 µM
- TGI [1]: 4.9 µM
- CC50 [1]: 8.5 µM
- GI50 [2]: 2.9 µM
- TGI [2]: 4.7 µM
- CC50 [2]: 8 µM
- GI50 [3]: 5.6 µM
- TGI [3]: > 10 µg/mL
- CC50 [3]: > 10 µg/mL

Structure (SMILES): COC1=C(Br)[C@H](O)[C@@]2(C=C1Br)CC(C(=O)NCCCCCNC(=O)C1=NO[C@]3(C=C(Br)C(=O)[C@@H]4O[C@@H]43)C1)=NO2 [APLYSINONE C]
- GI50 [1]: 12.6 µM
- TGI [1]: > 10 µg/mL
- CC50 [1]: > 10 µg/mL
- GI50 [2]: 5.6 µM
- TGI [2]: 5.8 µM
- CC50 [2]: 6.4 µM
- GI50 [3]: 10.7 µM
- TGI [3]: > 10 µg/mL
- CC50 [3]: > 10 µg/mL

Structure (SMILES): COC1=C(Br)[C@H](O)[C@@]2(C=C1Br)CC(C(=O)NCCCCNC(=O)C1=NO[C@]3(C=C(Br)C(OC)=C(Br)[C@@H]3O)C1)=NO2 [AEROTHIONIN]
- GI50 [1]: > 10 µg/mL
- TGI [1]: > 10 µg/mL
- CC50 [1]: > 10 µg/mL
- GI50 [2]: > 10 µg/mL
- TGI [2]: > 10 µg/mL
- CC50 [2]: > 10 µg/mL
- GI50 [3]: > 10 µg/mL
- TGI [3]: > 10 µg/mL
- CC50 [3]: > 10 µg/mL

Structure (SMILES): COC1(OC)C(Br)=C[C@@]2(CC(C(=O)NCCCCCNC(=O)C3=NO[C@]4(C=C(Br)C(OC)(OC)[C@@H](Br)[C@@H]4O)C3)=NO2)[C@@H](O)[C@@H]1Br
- GI50 [1]: > 10 µg/mL
- TGI [1]: > 10 µg/mL
- CC50 [1]: > 10 µg/mL
- GI50 [2]: > 10 µg/mL
- TGI [2]: > 10 µg/mL
- CC50 [2]: > 10 µg/mL
- GI50 [3]: > 10 µg/mL
- TGI [3]: > 10 µg/mL
- CC50 [3]: > 10 µg/mL

Structure (SMILES): COC1=C(Br)[C@H](O)[C@@]2(C=C1Br)CC(C(=O)NCCCCNC(=O)C1=NO[C@]3(C=C(Br)C(=O)[C@@H](Br)[C@@H]3O)C1)=NO2 [APLYSINONE D]
- GI50 [1]: 4.1 µM
- TGI [1]: 5.2 µM
- CC50 [1]: 11.3 µM
- GI50 [2]: 3.5 µM
- TGI [2]: 5 µM
- CC50 [2]: 7.6 µM
- GI50 [3]: 5.7 µM
- TGI [3]: > 10 µg/mL
- CC50 [3]: > 10 µg/mL

Structure (SMILES): COC1=C(Br)[C@H](O)[C@@]2(C=C1Br)CC(C(=O)NCCCCCNC(=O)C1=NO[C@]3(C=C(Br)C(=O)[C@H](Br)[C@@H]3O)C1)=NO2
- GI50 [1]: 4.8 µM
- TGI [1]: 5 µM
- CC50 [1]: 5.4 µM
- GI50 [2]: 3.5 µM
- TGI [2]: 4.9 µM
- CC50 [2]: 6.7 µM
- GI50 [3]: 5.4 µM
- TGI [3]: 8.7 µM
- CC50 [3]: 11.2 µM

Structure (SMILES): COC1=C(Br)[C@H](O)[C@@]2(C=C1Br)CC(C(=O)NCCCCCNC(=O)C1=NO[C@]3(C=C(Br)C(OC)=C(Br)[C@@H]3O)C1)=NO2 [HOMOAEROTHIONIN]
- GI50 [1]: > 10 µg/mL
- TGI [1]: > 10 µg/mL
- CC50 [1]: > 10 µg/mL
- GI50 [2]: > 10 µg/mL
- TGI [2]: > 10 µg/mL
- CC50 [2]: > 10 µg/mL
- GI50 [3]: > 10 µg/mL
- TGI [3]: > 10 µg/mL
- CC50 [3]: > 10 µg/mL
